{
  "source": "patent US4299970A",
  "about": "“Oxy-alkylamino carboxylic esters” (Beecham Group Limited, priority 1974, dated 1981)",
  "key": {"[1]": {"system": "femoral artery of the hind limb", "test": "vasodilator activity in femoral artery of the hind limb (vascular resistance)", "assay_type": "in vivo, beagle dog", "conditions": "dose range of 0.01-1 mg/kg, intra-arterially", "method": "(§1) b. The vasodilator activity of the compounds was determined in the femoral artery of the hind limb of the anaesthetised beagle dog. The method used was similar to that described by J. Nakano and J. R. McCurdy, (1967), J. Pharmac. Exp. Ther., 156, 538.\nThe compounds were administered into the iliac artery and the effects on both flow and pressure in the hind limb were recorded. Changes in vascular resistance (R) were calculated from the following expression: [formula]"}, "[2]": {"system": "total peripheral resistance", "test": "total peripheral resistance, intravenous", "assay_type": "in vivo, beagle dog", "conditions": "dose range of 0.01-10 mg/kg, intra-venously", "method": "as §1\nIn other experiments the compounds were administered into the left femoral vein and the right femoral arterial pressure and cardiac output were monitored. From these experiments, total peripheral resistance (TPR) was calculated from the expression: [formula]"}, "blood pressure": {"system": "blood pressure", "test": "anti-hypertensive activity in the renal hypertensive rat", "assay_type": "in vivo", "conditions": "100 mg/kg, orally", "method": "c. The anti-hypertensive activity of the compounds was determined in the renal hypertensive rat. Rats were made hypertensive by nephrectomy and treatment with deoxycorticosterone acetate/NaCl. The compounds were administered orally to a group of 3 hypertensive rats at a dose level of 100 mg/kg and their blood pressure was monitored after 4, 6 and 24 hours."}, "[3]": {"system": "guinea pig platelet aggregation induced by ADP", "test": "inhibition of guinea pig platelet aggregation induced in vitro by ADP", "assay_type": "cell-based", "conditions": "Cavia porcellus, ADP 5.45×10^-7 M, platelet rich plasma, 37° C.", "method": "a. The compounds were examined for their ability to inhibit guinea pig platelet aggregation induced, in vitro, by 5.45×10^-7 M adenosine diphosphate (ADP).\nThe method consisted of diluting the compound immediately before use from a 10 mg/ml solution in ethanol to a 1 mg/ml solution with saline and then adding the appropriate volume to 0.5 ml of platelet rich plasma. The mixture was stirred at 37° C. for 1 minute before 25 μl of an ADP solution was added to give a final ADP concentration of 5.45×10^-7 M. The aggregation response was then recorded relative to the control."}, "[4]": {"system": "human platelet aggregation induced by adenosine diphosphate (ADP)", "test": "inhibition of human platelet aggregation induced in vitro by ADP", "assay_type": "cell-based", "conditions": "10^-4 M, platelet rich plasma, 37° C.", "method": "(§2) b. The compounds were examined for their ability to inhibit human platelet aggregation induced, in vitro, either by adenosine diphosphate (ADP) or collagen. The compounds were added in saline or dimethylformamide to platelet rich plasma at 37° C. to give a final concentration of 10^-4 M. After 3 minutes the platelets were challenged with ADP or collagen. The aggregation response was then recorded relative to the control."}, "[5]": {"system": "human platelet aggregation induced by collagen", "test": "inhibition of human platelet aggregation induced in vitro by collagen", "assay_type": "cell-based", "method": "as §2"}, "[6]": {"system": "gerbil colon; contraction to prostaglandin F2α", "test": "prostaglandin antagonist activity on the isolated perfused gerbil colon (contraction to prostaglandin F2α)", "conditions": "Meriones unguiculatus; reduction of contraction to prostaglandin F2α; one minute pre-contact time", "method": "The compounds were tested for prostaglandin-like and for prostaglandin antagonist activity on the isolated perfused gerbil colon preparation (smooth muscle). This has been shown by J. R. Weeks, J. R. Schultz and W. E. Brown, (1968), J. App. Physiol, 25, 783, to have greater precision and sensitivity than other preparations. A 15 mm portion of the descending colon is suspended in an organ bath and perfused with De Jalon's saline at 32° C. Compounds were given in a three minute cycle with a 45 second contact time and a 15 second washout time. Antagonist compounds were given with a one minute pre-contact time.\nAntagonist activity was determined by measuring the percentage reduction of the contraction to two standard doses of prostaglandin F2α which gave responses between 20% and 80% of maximum response."}},
  "data": [
    {"smiles": "CCCCCC(O)CCN1C(=O)CCC(=O)C1CCCCCCC(=O)OCC", "note": "(stereo not drawn) [Compound 73, 2-(6'-Ethoxycarbonyl-n-hexyl)-1-(3\"-hydroxy-n-octyl)-piperidin-3,6-dione]", "values": [
      {"measurement": "vascular resistance", "setting": "[1]", "result": "decreased vascular resistance"},
      {"measurement": "total peripheral resistance (TPR)", "setting": "[2]", "result": "decreased total peripheral resistance"},
      {"measurement": "fall in blood pressure after 4 hours", "setting": "blood pressure; 4 hours", "result": 16, "unit": "%"},
      {"measurement": "blood pressure after 6 hours", "setting": "blood pressure; 6 hours", "result": "risen to normal hypertensive levels"},
      {"measurement": "IC50", "setting": "[3]", "result": 44, "unit": "µM"},
      {"measurement": "inhibition at 100 µM", "setting": "[4]", "result": 87, "unit": "%"},
      {"measurement": "inhibition at 100 µM", "setting": "[5]; 10^-4 M, collagen, platelet rich plasma, 37° C.", "result": 100, "unit": "%"},
      {"measurement": "IC50", "setting": "[5]; Platelet, read-out: IC50 against collagen-induced aggregation", "result": 2.8, "unit": "µM"},
      {"measurement": "IC50", "setting": "[6]", "result": 3.4, "unit": "µg/mL"}
    ]}
  ]
}
